{"source": "patent US6638948B1", "about": "“Amorphous paroxetine composition” (Pentech Pharmaceuticals, Inc., priority 1996, dated 2003)", "key": {"[1]": {"assay": "Stability testing: specimen stored in a glass container with HDPE liner, opened and closed periodically, exposing it to atmospheric moisture; moisture and appearance noted", "assay_type": "physicochemical", "method": "To a reaction flask containing 100 ml of absolute ethanol was added 13.9 g of paroxetine base. The flask was shaken until a clear solution was obtained. To this paroxetine solution, 10 ml of a solution of hydrochloric acid in absolute ethanol (22% v/v) was added dropwise. As the reaction proceeded to completion, the color of the solution changed from a yellow brown to a pink brown. The product was then vacuum dried in a rotary evaporator. A foamy, amorphous solid was obtained (lot # W951027). The produced amorphous solid was subjected to an additional 2.5 days of drying in a desiccator at reduced pressure. The solid, a free-flowing powder, was tested for composition by NMR and FTIR. The findings were consistent with published spectra for paroxetine. Silver nitrate testing of the solid indicated the presence of chloride in the sample. […] Residual moisture was determined by Karl-Fisher coulometric method at 0.7%. […] X-ray powder diffraction was performed using the powder pack method. The powder patterns were obtained using a Philips PW1710 automated diffractometer, with monochromatized CuKα, (Kα1=1.54060 Å; Kα2=1.54438 Å) radiation. The diffractometer was equipped with a compensating slit and a graphite monochromator. It was calibrated to 0.02° (2θ) using the quartz peak at 26.66θ° (2θ). The minimum peak/background ratio was 0.75. This spectrum is consistent with an amorphous solid form. The halo effect is clearly seen and the intensity is small. Differential scanning calorimetry was performed on the solid at two different heating rates.\nA specimen (0.5 g) was stored in a glass container with a HDPE liner for stability testing. The container was opened and closed periodically exposing the specimen to atmospheric moisture. Moisture determination was conducted at intervals of about 3 months.\nA solution of paroxetine hydrochloride in absolute ethanol (3.2 g/100 ml) was prepared as described in EXAMPLE 1. The solution was charged into a spray-drying machine (Yamato Chemical Co.) using a standard nozzle (0.1 mm orifice). The inlet temperature was set at 90 degrees Celsius and the outlet temperature at 60 degrees Celsius. The sample was spray dried to a fine, off-white powder (lot # W951026). Following recovery, the material was transferred to a vacuum desiccator and dried under partial vacuum for an additional 2.5 days. The resulting solid, a free-flowing powder, was tested for composition by NMR and FTIR. The findings were consistent with published spectra for paroxetine. Silver nitrate solution addition to an aqueous solution of the powder produced a white precipitate indicative of chloride. […] Residual moisture in the product was 0.8% measured by Karl-Fisher coulometric method. A sample was analyzed by HPLC and found to be free from related substances (purity>99%). This spectrum is consistent with an amorphous form. Differential scanning calorimetry was conducted on the solid.\nFor stability testing a specimen (9 g) was stored in a glass container with a HDPE liner. The container was opened and closed periodically exposing the specimen to atmospheric moisture. Moisture determination was conducted at intervals of about 3 months."}, "[2]": {"conditions": "reported by Barnes et al. (U.S. Pat. No. 4,721,723); cited from earlier work"}, "[3]": {"conditions": "3 months storage, periodic exposure to atmospheric moisture"}, "[4]": {"conditions": "6 months storage, periodic exposure to atmospheric moisture"}, "[5]": {"conditions": "Initial, Karl-Fisher coulometric method"}}, "data": [{"smiles": "Cl.Fc1ccc([C@@H]2CCNC[C@H]2COc2ccc3c(c2)OCO3)cc1", "note": "[lot #W951026, (−)-trans4R-(4′-fluorophenyl)-3S-[(3′4′-methylenedioxy-phenoxy)methyl]-piperidine]", "values": [{"measurement": "APPEARANCE", "setting": "[1]; [3]", "result": "Free-flowing"}, {"measurement": "MOISTURE", "setting": "[1]; [3]", "result": 2.1, "unit": "% w/w"}, {"measurement": "APPEARANCE", "setting": "[1]; [4]", "result": "Free-flowing"}, {"measurement": "MOISTURE", "setting": "[1]; [4]", "result": 2.2, "unit": "% w/w"}, {"measurement": "APPEARANCE", "setting": "[1]; Initial", "result": "Free-flowing"}, {"measurement": "MOISTURE", "setting": "[1]; [5]", "result": 0.8, "unit": "% w/w"}]}, {"smiles": "Cl.Fc1ccc([C@@H]2CCNC[C@H]2COc2ccc3c(c2)OCO3)cc1", "note": "[Amorphous paroxetine hydrochloride, (−)-trans4R-(4′-fluorophenyl)-3S-[(3′4′-methylenedioxy-phenoxy)methyl]-piperidine]", "values": [{"measurement": "hygroscopicity", "setting": "[2]", "result": "undesirably hygroscopic"}]}, {"smiles": "Cl.Fc1ccc([C@@H]2CCNC[C@H]2COc2ccc3c(c2)OCO3)cc1", "note": "[lot #W951027, (−)-trans4R-(4′-fluorophenyl)-3S-[(3′4′-methylenedioxy-phenoxy)methyl]-piperidine]", "values": [{"measurement": "APPEARANCE", "setting": "[1]; [3]", "result": "Free-flowing"}, {"measurement": "MOISTURE", "setting": "[1]; [3]", "result": 1.8, "unit": "% w/w"}, {"measurement": "APPEARANCE", "setting": "[1]; [4]", "result": "Free-flowing"}, {"measurement": "MOISTURE", "setting": "[1]; [4]", "result": 2.1, "unit": "% w/w"}, {"measurement": "APPEARANCE", "setting": "[1]; Initial", "result": "Free-flowing"}, {"measurement": "MOISTURE", "setting": "[1]; [5]", "result": 0.7, "unit": "% w/w"}]}]}
